# Results from publication PMC12165799, “Antimicrobial peptide developed with machine learning sequence optimization targets drug resistant Staphylococcus aureus in mice” (The Journal of Clinical Investigation, 2025).
# Like-named read-outs stand apart in the source and are kept apart here.
# Columns and labels:
# [1] = system: S. aureus MW2 biofilm formation; conditions: for Biofilm formation, biomass (crystal violet), percentage of untreated / Biofilm formation, live-cell viability (XTT), percentage of untreated: 24 hours
# Experimental: 349 Prevention of S. aureus MW2 biofilm formation
# 350 We evaluated the ability of the citropin 1.1-derived peptides to inhibit biofilm formation
# 351 following an established protocol with modifications (5). In short, we prepared exponential
# 352 cultures of S. aureus MW2 (adjusted to OD600 = 0.01) in TSB medium (supplemented with 0.2%
# 353 glucose) from overnight cultures. We added 90 µl of the bacterial culture to 10 µl of serially diluted
# 354 10× peptide solution in flat-bottomed 96-well polystyrene microtiter plates (Cat no. Corning 3595,
# We used TSB medium containing
# 356 bacteria with water as the positive control, while TSB media with sterile water served as the
# 357 negative control. After incubation, we carefully removed the TSB medium and washed the wells
# 358 with PBS (Gibco, MD, USA) to remove loosely attached planktonic cells. We quantified the
# 359 biomass by staining the biofilms with crystal violet following an established protocol and
# 360 quantitated the concentration of peptide that inhibits 50% of biofilm formation (MBIC50)(8). We
# 361 measured the live cell count of the biofilms using XTT dye [2,3-bis(2-methyloxy-4-nitro-5-
# 362 sulfophenyl)-2H-tertazolium-5-carboxanilide] (ATCC, VA, USA).
# [2] = system: MRSA (S. aureus MW2) biofilm; assay: Biofilm viability assay on solid support (MW2); format: cell-based, Staphylococcus aureus; conditions: for Bacterial load of 24 hour established biofilm on solid membrane: S. aureus MW2, 24 h in PBS
# S. aureus MW2 membrane = assay: Propidium iodide-based membrane permeability; format: cell-based, Staphylococcus aureus; conditions: S. aureus MW2, 60 minutes
# Experimental: 484 min at room temperature in the dark based on a previously established protocol (8). We added 90
# 485 µl of the dye/bacteria mixture to 10 μl of serially diluted 10× peptide concentration in black, 96-
# 486 well plates (Cat. no. 3904, Corning, NY, USA) and incubated the plates for 1 hour at room
# 487 temperature. We measured the fluorescence with excitation and emission wavelengths of 485 nm
# 488 and 525 nm, respectively in endpoint assay mode using a SpectraMax i3x (Molecular Devices,
# 489 CA, USA) fluorescence reader.
# 490 Propidium iodide-based membrane permeability
# 491 We used a propidium iodide (Thermo Fisher Scientific, MA, USA) fluorescence-based
# 492 bacterial permeation assay to establish membrane-oriented interactions with the designed peptides
# 493 based on a previously established protocol (8). We prepared exponential phase S. aureus MW2
# 494 bacteria and diluted to OD600 = 0.4 in PBS. We added PI dye (final concentration = 2 µM) to the
# 495 bacteria in 1:10 serial dilutions in black, 96-well plates (Cat. no. 3904, Corning, NY, USA) and
# 496 incubated the plates for 1 hour at room temperature. We then measured the fluorescence with an
# 497 excitation wavelength of 584 nm and an emission wavelength of 620 nm in endpoint assay mode
# 498 using a SpectraMax i3x (Molecular Devices, CA, USA) fluorescence reader.
# 501 To determine the ATP leakage potential of the peptides, we employed a luciferase-based
# 502 assay(18). In brief, we washed exponential phase of S. aureus MW2 bacteria three times with PBS
# 503 (pH 7.4) and adjusted the washed cells to OD600 = 0.4 in PBS. Following treatment of the bacteria
# 504 with 32 µg/ml of CIT-8 peptide at 37°C for 30 min, we centrifuged the cells at 14,000× g for 5
# 505 min. We transferred 50 µl of each supernatant fraction to black, clear-bottom, 96-well plates
# [3] = system: VRSA (S. aureus VRS1) biofilm; assay: Biofilm viability assay on solid support (VRS1); format: cell-based, Staphylococcus aureus; conditions: for Bacterial load of 24 hour established biofilm on solid membrane: S. aureus VRS1, 24 h in PBS
# S. aureus MW2 = assay: Minimal inhibitory concentration (MIC) assay, broth microdilution; format: cell-based, Staphylococcus aureus
# Experimental: 300 Synthesis of peptides
# 302 Piscataway, NJ, USA).
# 305 Minimal inhibitory concentration (MIC) assay
# We made serial dilutions of 10×
# We determined the MIC using OD600
# Accordingly, we added 150 mM NaCl,
# 319 established protocol (5).
# [4] = 40 μg/mL, 24 h established biofilm
substance,measurement,setting,value
H-GLFKVIKKLLKVI-NH2 [CIT-8],"Biofilm formation, biomass (crystal violet), percentage of untreated","[1]; 4 μg/ml, replicate 1",54.1113
same,"Biofilm formation, live-cell viability (XTT), percentage of untreated","[1]; 4 μg/ml, replicate 1",32.0317
same,"Biofilm formation, biomass (crystal violet), percentage of untreated","[1]; 4 μg/ml, replicate 2",76.6895
same,"Biofilm formation, live-cell viability (XTT), percentage of untreated","[1]; 4 μg/ml, replicate 2",22.3741
same,"Biofilm formation, biomass (crystal violet), percentage of untreated","[1]; 4 μg/ml, replicate 3",101.649
same,"Biofilm formation, live-cell viability (XTT), percentage of untreated","[1]; 4 μg/ml, replicate 3",54.6427
same,"Biofilm formation, biomass (crystal violet), percentage of untreated","[1]; 8 μg/ml, replicate 1",13.6231
same,"Biofilm formation, live-cell viability (XTT), percentage of untreated","[1]; 8 μg/ml, replicate 1",-0.6814
same,"Biofilm formation, biomass (crystal violet), percentage of untreated","[1]; 8 μg/ml, replicate 2",7.383
same,"Biofilm formation, live-cell viability (XTT), percentage of untreated","[1]; 8 μg/ml, replicate 2",-0.6073
same,"Biofilm formation, biomass (crystal violet), percentage of untreated","[1]; 8 μg/ml, replicate 3",9.789
same,"Biofilm formation, live-cell viability (XTT), percentage of untreated","[1]; 8 μg/ml, replicate 3",-0.7036
same,"Biofilm formation, biomass (crystal violet), percentage of untreated","[1]; 16 μg/ml, replicate 1",8.5978
same,"Biofilm formation, live-cell viability (XTT), percentage of untreated","[1]; 16 μg/ml, replicate 1",-0.7406
same,"Biofilm formation, biomass (crystal violet), percentage of untreated","[1]; 16 μg/ml, replicate 2",7.669
same,"Biofilm formation, live-cell viability (XTT), percentage of untreated","[1]; 16 μg/ml, replicate 2",-0.7184
same,"Biofilm formation, biomass (crystal violet), percentage of untreated","[1]; 16 μg/ml, replicate 3",8.622
same,"Biofilm formation, live-cell viability (XTT), percentage of untreated","[1]; 16 μg/ml, replicate 3",-0.5258
same,"Biofilm formation, biomass (crystal violet), percentage of untreated","[1]; 32 μg/ml, replicate 1",7.502
same,"Biofilm formation, live-cell viability (XTT), percentage of untreated","[1]; 32 μg/ml, replicate 1",-0.6814
same,"Biofilm formation, biomass (crystal violet), percentage of untreated","[1]; 32 μg/ml, replicate 2",7.074
same,"Biofilm formation, live-cell viability (XTT), percentage of untreated","[1]; 32 μg/ml, replicate 2",-0.6962
same,"Biofilm formation, biomass (crystal violet), percentage of untreated","[1]; 32 μg/ml, replicate 3",7.812
same,"Biofilm formation, live-cell viability (XTT), percentage of untreated","[1]; 32 μg/ml, replicate 3",-0.5036
same,Concentration killing 50% of biofilm cells during biofilm formation,"[1]; XTT live-cell viability, 24 h",4 µg/mL
same,MBIC50 (biomass reduced by 50%),"[1]; crystal violet, 24 h",6 µg/mL
same,Reduction of viable biofilm cells of MRSA in established biofilms,[2]; 40 μg/mL (abstract),3 log10
same,Reduction of MRSA biofilm burden on solid membrane,[2]; [4],2.2 logs
same,Bacterial load of 24 hour established biofilm on solid membrane,"[2]; 4 μg/ml, replicate 1",2200000
same,Bacterial load of 24 hour established biofilm on solid membrane,"[2]; 4 μg/ml, replicate 2",2000000
same,Bacterial load of 24 hour established biofilm on solid membrane,"[2]; 4 μg/ml, replicate 3",3600000
same,Bacterial load of 24 hour established biofilm on solid membrane,"[2]; 4 μg/ml, replicate 4",14000000
same,Bacterial load of 24 hour established biofilm on solid membrane,"[2]; 4 μg/ml, replicate 5",8000000
same,Bacterial load of 24 hour established biofilm on solid membrane,"[2]; 4 μg/ml, replicate 6",3800000
same,Bacterial load of 24 hour established biofilm on solid membrane,"[2]; 40 μg/ml, replicate 1",200000
same,Bacterial load of 24 hour established biofilm on solid membrane,"[2]; 40 μg/ml, replicate 2",400000
same,Bacterial load of 24 hour established biofilm on solid membrane,"[2]; 40 μg/ml, replicate 3",800000
same,Bacterial load of 24 hour established biofilm on solid membrane,"[2]; 40 μg/ml, replicate 4",200000
same,Bacterial load of 24 hour established biofilm on solid membrane,"[2]; 40 μg/ml, replicate 5",600000
same,Bacterial load of 24 hour established biofilm on solid membrane,"[2]; 40 μg/ml, replicate 6",200000
same,Propidium iodide fluorescence (membrane permeation),S. aureus MW2 membrane,increased fluorescence compared with untreated controls
same,Reduction of viable biofilm cells of VRSA in established biofilms,[3]; 40 μg/mL (abstract),4 log10
same,Reduction of VRSA biofilm burden on solid membrane,[3]; [4],3.8 logs
same,Bacterial load of 24 hour established biofilm on solid membrane,"[3]; 4 μg/ml, replicate 1",4000000
same,Bacterial load of 24 hour established biofilm on solid membrane,"[3]; 4 μg/ml, replicate 2",80000000
same,Bacterial load of 24 hour established biofilm on solid membrane,"[3]; 4 μg/ml, replicate 3",14000000
same,Bacterial load of 24 hour established biofilm on solid membrane,"[3]; 4 μg/ml, replicate 4",40000000
same,Bacterial load of 24 hour established biofilm on solid membrane,"[3]; 4 μg/ml, replicate 5",2000000
same,Bacterial load of 24 hour established biofilm on solid membrane,"[3]; 4 μg/ml, replicate 6",20000000
same,Bacterial load of 24 hour established biofilm on solid membrane,"[3]; 40 μg/ml, replicate 1",16000
same,Bacterial load of 24 hour established biofilm on solid membrane,"[3]; 40 μg/ml, replicate 2",6000
same,Bacterial load of 24 hour established biofilm on solid membrane,"[3]; 40 μg/ml, replicate 3",2400
same,Bacterial load of 24 hour established biofilm on solid membrane,"[3]; 40 μg/ml, replicate 4",18000
same,Bacterial load of 24 hour established biofilm on solid membrane,"[3]; 40 μg/ml, replicate 5",12000
same,Bacterial load of 24 hour established biofilm on solid membrane,"[3]; 40 μg/ml, replicate 6",2200
same,"MIC, Medium only","S. aureus MW2; S. aureus MW2, TSB",4 µg/mL
same,MIC + ZnSO4 (8 μM),"S. aureus MW2; S. aureus MW2, TSB + 8 μM ZnSO4",4 µg/mL
same,MIC + MgSO4 (1 mM),"S. aureus MW2; S. aureus MW2, TSB + 1 mM MgSO4",4 µg/mL
same,MIC + CaCl2 (2.5 mM),"S. aureus MW2; S. aureus MW2, TSB + 2.5 mM CaCl2",4 µg/mL
same,MIC + NaCl (150 mM),"S. aureus MW2; S. aureus MW2, TSB + 150 mM NaCl",4 µg/mL
same,MIC + human serum (5%),"S. aureus MW2; S. aureus MW2, TSB + 5% human serum",8 µg/mL
same,MIC + human serum (10%),"S. aureus MW2; S. aureus MW2, TSB + 10% human serum",8 µg/mL
same,Increase of MIC in human serum,"S. aureus MW2; S. aureus MW2, 5%–10% human serum",2 fold
same,MIC SA,"S. aureus MW2; S. aureus MW2, broth microdilution, TSB, 1 × 10^6 CFU/ml, 37°C 18 h, OD600, duplicate",4 µg/mL
